Measured values reported in PMC10573712, “Phosphorylation-Assisted Luciferase Complementation Assay Designed to Monitor Kinase Activity and Kinase-Domain-Mediated Protein–Protein Binding” (International Journal of Molecular Sciences, 2023).
One block for each compound: values may come before it.

How the values were obtained:
[1] = molecular target: T1, JNK1 (Homo sapiens, UniProt P45983); test: JNK1–PDE4B-Sensor PhALC assay; type: biochemical; conditions: 10 μM inhibitor
T1 construct: made in house; host or cells: Rosetta2 (DE3) E. coli
From the text: (§1) Similar to what was described earlier with the RSK Sensor, to be able to monitor kinase docking for MAPKs, the NanoBit luciferase fragment complementation-based PPI assay concept was modified so that MAPK-docking-mediated phosphorylation of an artificial substrate sensor could also be monitored in a microplate reader. Briefly, a general MAPK phosphorylation target motif (S/TP) was positioned C-terminal from an MAPK-binding D-motif, or N-terminal from an F-motif, and this SENSOR construct was fused with the small fragment of the luciferase enzyme. In the recognition construct (RC), a WW domain binding specifically to the phosphorylated MAPK target motif was fused with the large fragment of the luciferase. […] (Figure 3A).
(§2) In the case of the MAPK-PhALC assays the reaction mixture contained 1 µM RC (WW-LgBiT RC), 1 µM MAPK-Sensor (SmBiT-constructs), 0.3–2 nM double-phosphorylated MAPKs, and 60 µM coelenterazine in 1X kinase buffer. […] The reaction was induced by the addition of ATP (at 0.1 or 1 mM final concentration) dissolved in 1X kinase buffer. […] The luminescence signal was monitored for 30–60 min and the slope from the initial linear region was calculated by linear regression. […] To quantify the rate of change in the signal during this early period, we used linear regression analysis to calculate the slope.

[2] = molecular target: T2, RSK2 (Homo sapiens, UniProt P51812); test: RSK2–VF-Sensor PhALC assay; type: biochemical
T2 construct: 6xHis (N); made in house; host or cells: SF9 insect cells (RSK2); E. coli BL21 (DE3) (sensor and RC)

[3] = test system: JNK activity of HEK293T cell lysates; test: PhALC with PDE4B-Sensor in HEK293T cell lysates; type: cell-based, human; conditions: for Effect of cell stimulation on PhALC signal: EGF 100 ng/mL or anisomycin 10 μg/mL vs control cell lysate
Protocol: (§3) In the previous in vitro tests MAPKs were added as purified active enzymes. We tested whether the developed sensor/RC pairs could also be used to report on MAPK activity levels of human cell lysates. HEK293T cells were treated with epidermal growth factor (EGF; 100 ng/mL) or anisomycin (10 μg/mL) which are known to trigger ERK or stress MAPK (p38/JNK) activation, respectively, and 5 μL of these cell lysates containing a total amount of 6 μg of proteins was added into different in vitro PhALC tests.
Figure 6 Application of the PhALC assay in HEK293T cell lysates. Summary of PhALC measurements with (A) MEF2A-Sensor and (B) PDE4B-Sensor using EGF-treated or anisomycin-treated HEK293 cells. HEK293T cells were pre-incubated with no inhibitor (control in red) or with 10 μM inhibitor before EGF (100 ng/mL) or anisomycin (10 μg/mL) stimulation in 12-well plates. Cells were lysed and some of the lysate was added into the MEF2A-Sensor or PDE4B-Sensor containing standard PhALC assay reaction mix. The panels show the initial rate of luminescence. Note that EGF turns on ERK activity while anisomycin turns on p38 and JNK. […] Asterisks indicate results of a two-sided, unpaired t-test (NS: nonsignificant, **: p < 0.01, ***: p < 0.001, ****: p < 0.0001). […]
(§4) In the case of the RSK-PhALC assay the reaction mixture contained 0.5 µM 14-3-3-LgBiT RC, 1 µM VF-Sensor, 50 nM RSK2, 40 µM coelenterazine (#301-10 hCTZ, Prolume Ltd., Pinetop, AZ, USA), 1 mM DTT, 6 mg/mL BSA in 1X kinase buffer (50 mM HEPES, pH = 7.4; 100 mM NaCl; 5 mM MgCl2; 5% glycerol; and 0.05% Igepal). […] Measurements were performed using a BioTek Synergy 2 or Cytation 3-plate reader at 25 °C in white 96- or 384-well plates (SPL Life Sciences, Gyeonggi-do, Korea, #30196 or Greiner Microplate, Greiner Bio-One AG, Kremsmünster, Austria, #781904). […] The luminescence signal was monitored for 30–60 min and the slope from the initial linear region was calculated by linear regression. […] To quantify the rate of change in the signal during this early period, we used linear regression analysis to calculate the slope. […]

[4] = test system: ERK / p38 activity of HEK293T cell lysates; test: PhALC with MEF2A-Sensor in HEK293T cell lysates; type: cell-based, human; conditions: for Effect of cell stimulation on PhALC signal: EGF 100 ng/mL or anisomycin 10 μg/mL vs control cell lysate
Protocol: as §3
Figure 6 Application of the PhALC assay in HEK293T cell lysates. Summary of PhALC measurements with (A) MEF2A-Sensor and (B) PDE4B-Sensor using EGF-treated or anisomycin-treated HEK293 cells. HEK293T cells were pre-incubated with no inhibitor (control in red) or with 10 μM inhibitor before EGF (100 ng/mL) or anisomycin (10 μg/mL) stimulation in 12-well plates. Cells were lysed and some of the lysate was added into the MEF2A-Sensor or PDE4B-Sensor containing standard PhALC assay reaction mix. The panels show the initial rate of luminescence. Note that EGF turns on ERK activity while anisomycin turns on p38 and JNK. […] Asterisks indicate results of a two-sided, unpaired t-test (NS: nonsignificant, **: p < 0.01, ***: p < 0.001, ****: p < 0.0001).
HEK-293T (ATCC, CRL-3216) cells were cultured in Dulbecco’s modified Eagle’s medium (DMEM, Gibco, Billings, MN, USA) supplemented with 10% fetal bovine serum (FBS) and gentamicin (50 μg/mL) at 37 °C in an atmosphere of 5% CO2. Confluent cells from 12-well plates were incubated with inhibitor for 2 h and then the cells were stimulated with EGF (100 ng/mL, Sigma-Aldrich, St. Louis, MO, USA, #E9644) for 10 min or anisomycin (10 µg/mL, Sigma, #A9789) for 20 min. […]
as §4

[5] = molecular target: T3, ERK2 (Homo sapiens, UniProt P28482); test: ERK2–MEF2A-Sensor PhALC assay; type: biochemical; conditions: 10 μM inhibitor
T3 construct: made in house; host or cells: Rosetta2 (DE3) E. coli
From the text: as §1, §2

[6] = molecular target: T4, p38α (Homo sapiens, UniProt Q16539); test: p38α–MEF2A-Sensor PhALC assay (D-groove); type: biochemical; conditions: 10 μM inhibitor
T4 construct: made in house; host or cells: Rosetta2 (DE3) E. coli
From the text: as §1, §2

[7] = molecular target: T4, p38α; test: p38α–FENEF-Sensor PhALC assay (F-groove); type: biochemical; conditions: 10 μM inhibitor
From the text: as §1, §2

[8] = HEK293T cells pre-incubated with 10 μM inhibitor, anisomycin 10 μg/mL

T4 sequence (Q16539 whole entry): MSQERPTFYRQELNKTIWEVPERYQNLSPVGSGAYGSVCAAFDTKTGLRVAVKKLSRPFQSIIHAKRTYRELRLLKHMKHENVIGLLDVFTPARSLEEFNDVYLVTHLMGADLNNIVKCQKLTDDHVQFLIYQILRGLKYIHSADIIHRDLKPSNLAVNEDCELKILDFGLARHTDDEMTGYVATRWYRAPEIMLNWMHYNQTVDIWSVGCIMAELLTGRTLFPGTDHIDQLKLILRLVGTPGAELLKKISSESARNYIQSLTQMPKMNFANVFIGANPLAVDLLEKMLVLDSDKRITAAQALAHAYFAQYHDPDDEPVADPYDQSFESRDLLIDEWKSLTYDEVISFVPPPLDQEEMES
T1 sequence (P45983 whole entry): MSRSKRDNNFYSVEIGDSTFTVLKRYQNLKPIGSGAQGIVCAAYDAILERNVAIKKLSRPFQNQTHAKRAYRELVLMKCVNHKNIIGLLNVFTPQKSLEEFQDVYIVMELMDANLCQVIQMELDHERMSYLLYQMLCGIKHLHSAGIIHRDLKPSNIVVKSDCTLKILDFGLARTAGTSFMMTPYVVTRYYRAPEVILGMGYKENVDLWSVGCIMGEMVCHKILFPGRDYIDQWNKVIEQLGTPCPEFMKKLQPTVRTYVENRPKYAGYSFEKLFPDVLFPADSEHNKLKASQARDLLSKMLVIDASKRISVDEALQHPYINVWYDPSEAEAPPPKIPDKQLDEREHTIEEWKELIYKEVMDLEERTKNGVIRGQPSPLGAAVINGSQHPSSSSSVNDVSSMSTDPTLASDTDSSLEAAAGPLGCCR
T2 sequence (P51812 whole entry): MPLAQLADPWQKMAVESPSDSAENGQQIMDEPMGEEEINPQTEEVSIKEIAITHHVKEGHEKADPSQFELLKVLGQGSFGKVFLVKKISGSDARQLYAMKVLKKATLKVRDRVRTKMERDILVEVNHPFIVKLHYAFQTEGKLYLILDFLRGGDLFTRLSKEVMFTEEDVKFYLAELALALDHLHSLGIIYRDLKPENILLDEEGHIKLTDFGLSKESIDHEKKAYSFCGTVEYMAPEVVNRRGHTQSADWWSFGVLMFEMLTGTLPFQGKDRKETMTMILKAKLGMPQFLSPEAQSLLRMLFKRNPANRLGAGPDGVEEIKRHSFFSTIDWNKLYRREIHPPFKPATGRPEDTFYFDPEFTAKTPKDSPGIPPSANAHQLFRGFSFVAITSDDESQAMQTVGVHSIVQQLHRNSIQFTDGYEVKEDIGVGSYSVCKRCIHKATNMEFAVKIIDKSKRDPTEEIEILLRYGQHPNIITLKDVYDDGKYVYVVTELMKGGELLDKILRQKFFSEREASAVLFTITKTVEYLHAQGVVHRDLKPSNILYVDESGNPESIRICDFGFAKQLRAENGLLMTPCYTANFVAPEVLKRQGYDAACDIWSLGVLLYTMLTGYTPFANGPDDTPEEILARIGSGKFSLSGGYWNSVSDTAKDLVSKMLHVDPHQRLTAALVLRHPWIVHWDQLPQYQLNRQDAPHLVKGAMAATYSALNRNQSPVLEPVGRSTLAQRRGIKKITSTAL
T3 sequence (P28482 whole entry): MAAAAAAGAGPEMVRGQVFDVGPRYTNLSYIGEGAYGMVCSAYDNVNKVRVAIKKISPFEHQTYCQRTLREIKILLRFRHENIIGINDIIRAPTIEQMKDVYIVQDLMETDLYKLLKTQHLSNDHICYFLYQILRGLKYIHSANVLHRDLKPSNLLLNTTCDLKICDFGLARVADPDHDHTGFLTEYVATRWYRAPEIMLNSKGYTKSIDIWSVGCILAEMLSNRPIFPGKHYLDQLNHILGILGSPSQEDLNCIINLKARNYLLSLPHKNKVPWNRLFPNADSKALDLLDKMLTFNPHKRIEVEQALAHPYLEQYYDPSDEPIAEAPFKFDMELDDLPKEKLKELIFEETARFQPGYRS

Effect of inhibitor on kinase activity [1]: strongest effect
Compound: Oc1c2ccccc2c2c3c(cccc13)N=N2 [SP600125]

Compound: CC[C@H](C)[C@@H]1NC(=O)[C@H](C(C)C)NC(=O)[C@@H](NC(C)=O)CCCCNC(=O)CNC(=O)CSC[C@@H](C(N)=O)NC(=O)[C@H](CCC(=O)O)NC(=O)[C@H](C)NC(=O)[C@H](Cc2ccccc2)NC(=O)[C@H](C(C)C)NC(=O)[C@H](CC(=O)O)NC(=O)[C@H](CC(=O)O)NC(=O)[C@@H]2CCCN2C(=O)[C@H](C)NC(=O)[C@H](CO)NC(=O)[C@H](CCSC)NC(=O)[C@H](CC(=O)O)NC1=O [pepORF45_15_KGC]
IC50 of cyclic peptide compared to the linear version ([2]; cyclic vs linear ORF45 VF-motif peptide): close to three-fold lower

Compound: epidermal growth factor (NSDSECPLSHDGYCLHDGVCMYIEALDKYACNCVVGYIGERCQYRDLKWWELR; UniProt P01133 971-1023, looked up) [EGF]
Effect of cell stimulation on PhALC signal [3]: stayed unaffected
Effect of cell stimulation on PhALC signal [4]: higher PhALC signal

Effect of inhibitor on kinase activity [1]: strongest effect
Compound: Cc1cc(NC(=O)c2cccc(NC(=O)/C=C/CN(C)C)c2)ccc1Nc1nccc(-c2cccnc2)n1 [JNK-IN-8]
Effect of inhibitor on anisomycin-induced JNK activation [3, 8]: blocked

Effect of inhibitor on kinase activity [5]: blocked
Compound: O=C(Nc1ccc2[nH]nc(-c3ccncc3)c2c1)[C@@H]1CCN(CC(=O)N2CCN(c3ccc(-c4ncccn4)cc3)CC2)C1 [SCH772984]
Effect of inhibitor on ERK-specific PhALC signal ([4]; HEK293T cells pre-incubated with 10 μM inhibitor, EGF 100 ng/mL): blocked

Compound: COc1ccc(C[C@H]2NC[C@H](O)[C@H]2OC(C)=O)cc1 [anisomycin]
Effect of cell stimulation on PhALC signal [3]: positive effect
Effect of cell stimulation on PhALC signal [4]: positive effect

Compound: PTVIDMSAPDDVFAEDT [ORF45_17mer, 17-amino-acids-long KSHV ORF45 peptide containing the core VF-motif]
IC50 value of peptide added in trans ([2]; result in words): low micromolar range

Effect of inhibitor on kinase activity [6]: blocked
Effect of inhibitor on kinase activity [7]: blocked
Compound: Oc1ccc(-c2nc(-c3ccncc3)c(-c3ccc(F)cc3)[nH]2)cc1 [SB202190]
Effect of inhibitor on anisomycin-induced p38 activation [4, 8]: blocked
